Earlier results, collected in patent US8461314B2, “Nucleic acid sequences for biosynthesis of non-MccJ25-related lariat peptides” (Rutgers, The State University of New Jersey, priority 2007, dated 2013).

How the values were obtained:
[1] = system: Thermococcus-Deinococcus bacterial growth; conditions: Thermococcus-Deinococcus bacteria
bacterial RNA polymerase = bacterial RNA polymerase (Escherichia coli, UniProt P0A8T7+P0A8V2)
[2] = biological target: Gram-negative bacterial RNA polymerase (Escherichia coli, UniProt P0A8T7+P0A8V2)
[3] = system: RNA polymerase derivatives resistant to rifamycins
Gram-positive bacterial = conditions: Gram-positive bacteria
[4] = biological target: Gram-positive bacterial RNAP (Bacillus subtilis, UniProt P37870+P37871)
[5] = tested thermal and chemical denaturants
[6] = biological target: Thermus-Deinoccoccus bacterial RNAP (Thermus thermophilus, UniProt Q8RQE8+Q8RQE9); conditions: including, for example
[7] = system: mesophilic endo- and exopeptidease

Substance | inhibition of bacterial growth [1] | inhibition of bacterial RNA polymerase (bacterial RNA polymerase) | inhibition of Gram-negative bacterial RNA polymerase [2] | ability to inhibit RNA polymerase derivatives resistant to rifamycins [3] | cross-resistance with rifamycins [3] | inhibition of bacterial growth (Gram-positive bacterial) | antibacterial activity (Salmonella sp.) | inhibition of Gram-positive bacterial RNAP [4] | antibacterial activity (Escherchia coli) | resistance to denaturation [5] | inhibition of Thermus-Deinoccoccus bacterial RNAP [6] | resistance to proteolysis [7]
Gly1-Gly2-Ala3-Gly4-His5-Pro6-Val7-Glu8-Tyr9-Phe10-Val11-Gly12-Ile13-Gly14-Thr15-Pro16-Ile17-Ser18-Phe19-Tyr20-Gly21 cyclic(8→1) peptide [MccJ25] | not inhibit | inhibits | inhibits | retains full ability to inhibit | no cross-resistance | not inhibit | exhibits antibacterial activity | does not inhibit | exhibits antibacterial activity | complete resistance | does not inhibit | complete resistance
propeptin | – | inhibit | inhibit | – | – | – | – | inhibit | – | – | inhibit | –
